Patent publication US12686668B2, “Leukotriene synthesis inhibitors” (Naegis Pharmaceuticals Inc., priority 2019, dated 2026)

Legend:
[1] = system: LPS-induced neutrophil infiltration into the lung; test: Lipopolysaccharide (LPS) mouse lung inflammation model; assay type: in vivo, CD-1 mice; details: 10 mg/kg oral, 1 hr before and 2 hrs after LPS 2.5 mg/kg intratracheal, BAL 6 hr post-LPS
Protocol: In this model, LPS was instilled into the lungs of mice to induce a neutrophilia in the lung tissue. The neutrophilia can be measured in the BAL fluid during lung lavage at various times after challenge with LPS. The neutrophilia develops with a significant increase in cells in the BAL after 6 hrs and achieves a maximum response by 24 hrs. CD-1 mice received lipopolysaccharide (LPS) 2.5 mg/kg in phosphate buffered saline (PBS) or PBS in a volume of 50 μL by intracheal instillation into the lung. The animals were lightly anesthetized using isofluorane to enable application of the LPS. When anesthetized the animals were placed on a board at an angle of 45°. The tongue was rolled to one side and LPS was administered directly into the trachea in a volume of 50 μL. The animal remained in position for 1-2 minutes to ensure the LPS remained in the lung. At the end of the LPS challenge time, animals were euthanized by an overdose of isofluorane. The trachea was exposed and the lungs were intubated using a 21 G catheter tube. The lungs were lavaged with 2×1 mL of PBS at room temperature. […] The differential cell counts were determined using an automated cell counter (Abraxia) set to measure mouse cells. Cell concentration of the resuspended sample was expressed as total cells recovered in the total volume of recovered BAL. […]

[2] = Solubilized concentration of compound in eye drop formulation (HPLC); assay type: physicochemical; details: eye drop formulation: 20% hydroxypropyl β-cyclodextrin, 0.5% HPMC, 1.6 mM EDTA in PBS
Protocol: Eye drops were prepared by adding compounds at a theoretical concentration of 10 mg/mL to a 2 mL microcentrifuge tube before adding a stir bar and the selected formulation that consisted of (w/v) hydroxypropyl β-cyclodextrin (Trappsol) (20%), hydroxyl propyl methylcellulose (0.5%) and EDTA (1.6 mM) in phosphate buffered saline. Tubes containing compound in eye drop formulation were heated to 60-65° C. and stirred at least 4 hours to overnight. The tubes were removed from the heat bath and centrifuged at 10,000 ref for 5 minutes to clear the solution of any residual drug not in solution. The supernatant was removed from the tubes and one 10 μL sample was removed for HPLC analysis of solubilized by HPLC using an ACE C18 column (4.5 mm×150 mm, 5 m), eluted with acetonitrile/methanol/water mixture with H3PO4, pH 3.5 (50:30:20) with a flow rate of 2.5 mL/min. The solubilized concentration of each compound was calculated by interpolation from a standard curve based on reference standards solubilized in methanol when the assay was validated.
In Table 6, the data from distribution studies performed in Lewis rats show the concentration of each compound present in the retina 0.5 hr after the administration of a 10 μL drop of each topical formation is provided. Compounds were paired and individual formulations mixed at a ratio to make a mixture that contained ~2.5 mg/mL of each compound.

[3] = target: T1, recombinant human leukotriene A4 hydrolase enzyme (Homo sapiens, UniProt P09960); test: Amino-peptidase assay, PGP; assay type: biochemical; details: concentration not given
T1 construct: purchased Cayman Chemical 10007817
T1 sequence (P09960 1-611): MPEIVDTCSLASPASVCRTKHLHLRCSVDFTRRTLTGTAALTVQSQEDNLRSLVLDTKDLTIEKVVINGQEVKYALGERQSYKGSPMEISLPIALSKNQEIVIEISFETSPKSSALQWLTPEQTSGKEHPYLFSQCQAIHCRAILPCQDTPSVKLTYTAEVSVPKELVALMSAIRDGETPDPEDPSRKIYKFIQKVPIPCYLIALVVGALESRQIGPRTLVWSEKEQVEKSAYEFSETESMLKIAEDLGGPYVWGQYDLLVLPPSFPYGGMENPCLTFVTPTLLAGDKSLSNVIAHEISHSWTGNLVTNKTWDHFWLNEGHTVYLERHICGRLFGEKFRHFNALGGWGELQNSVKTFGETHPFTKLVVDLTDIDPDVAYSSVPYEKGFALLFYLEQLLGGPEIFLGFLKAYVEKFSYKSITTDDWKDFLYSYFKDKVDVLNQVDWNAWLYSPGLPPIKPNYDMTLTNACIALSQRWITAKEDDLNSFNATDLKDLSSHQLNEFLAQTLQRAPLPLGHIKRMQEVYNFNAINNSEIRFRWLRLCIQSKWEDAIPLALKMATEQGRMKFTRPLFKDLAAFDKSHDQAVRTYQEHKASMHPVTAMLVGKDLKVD
Protocol: A series of compound concentrations were pre-incubated with 50 ng of recombinant human leukotriene A4 hydrolase enzyme (Cayman Chemical, 10007817) in 50 L assay buffer (50 mM Tris-HCl, 100 mM KCl). The reaction was stimulated by adding 50 L 1 mM proline-glycine-proline (Bachem, H-7284) and incubated for 30 minutes at 37° C. The reaction was stopped with the addition of 150 μL of glacial acetic acid. The amount of free proline released from the peptide was detected through a reaction with ninhydrin. 150 μL of 25 mg/mL ninhydrin (BDH, B10132) in 60:40 acetic acid/water was added to each sample, and boiled for 30 minutes at 100° C. and once samples had cooled to room temperature, 350 μL of toluene was added to extract the ninhydrin reaction product. The amount of free proline was determined by comparing the absorbance at 520 nm to the L-proline (Sigma Aldrich, 81709) reference standard. Inhibition of free proline production was calculated based on control samples.

| Concentration of compound in formulation [2] | % Inhibition aminopeptidase-PGP activity of LTA4H [3] | Compound | Effect on LPS-induced neutrophil infiltration into the lung (BAL) [1] |
| --- | --- | --- | --- |
| 2.86 mg/mL | – | CCC(O)(CCc1ccc(Oc2nc3c(SC)cccc3s2)c(OC)c1)C(F)(F)F (stereo not drawn) [Compound 104, 1-{3-methoxy-4-[(4-methylsulfanyl-1,3-benzothiazol-2-yl)oxy]phenyl}-3-(trifluoromethyl)pentan-3-ol] | inhibitory effect |
| – | >75% | CC(O)(CCc1ccc(OCc2ccc3ccccc3n2)cc1)C(F)(F)F (stereo not drawn) [Compound 183, 1,1,1-trifluoro-2-methyl-4-[4-(quinolin-2-ylmethoxy)phenyl]butan-2-ol] | – |
